Results published in US7342027B2 (Yuhan Corporation, priority 2002, dated 2008).
Where a name gives a salt, the structure may show the parent alone.

The molecules below were run against T1, Recombinant human cathepsin K (Homo sapiens, UniProt P43235) (assay: Inhibition of cathepsin K activity (Z-Phe-Arg-AMC fluorescence assay)). Conditions: 25 uM Z-Phe-Arg-AMC, pH 5.5, 1 hour at 37° C.
T1 construct: made in house
T1 sequence (P43235 115-329): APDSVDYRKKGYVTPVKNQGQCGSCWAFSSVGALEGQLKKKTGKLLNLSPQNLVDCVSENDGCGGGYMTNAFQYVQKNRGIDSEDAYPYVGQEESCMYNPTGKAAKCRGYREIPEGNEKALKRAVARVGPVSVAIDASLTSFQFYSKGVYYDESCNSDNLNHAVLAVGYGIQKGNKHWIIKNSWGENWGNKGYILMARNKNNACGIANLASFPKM
Format: biochemical
Method: Test 1: Inhibition of Cathepsin K Activity
Recombinant human cathepsin K was prepared in accordance with Biol, Pharm. Bull, 19(8), 1026-1031 (1996) and J. Biol. Chem. 271, 2126-2132 (1996). Stock solutions of 2.5 mM Z-Phe-Arg-AMC (BACHEM, 1-1160) and all inhibitors were prepared in dimethyl sulfoxide. In vitro assays for cathepsin K were conducted with 25 uM Z-Phe-Arg-AMC as a substrate at pH 5.5 in 100 mM Na acetate buffer containing 20 mM cysteine and 5 mM EDTA in the presence of 2% final concentration of DMSO. Reaction was initiated by the addition of enzyme to samples, which were then incubated for 1 hour at 37° C. The fluorescence was monitored at 460 nm (excitation wavelength 360 nm) using fluorescence plate reader.
The concentrations of the test compounds, which inhibit 50% of cathepsin K activity, are represented as IC50 in Table 1.
CSc1cc(F)ccc1N1CCC(NC(=O)C2(NC(=O)c3ccco3)CCCCC2)C(=O)C1 (stereo not shown) [Example 85, 4-[N-[1-[N-(furan-2-ylcarbonyl)amino]cyclohexanecarbonyl]amino]-1-(4-fluoro-2-thiomethoxyphenyl)piperidin-3-one] gave an IC50 of 10.4 nM. CC1(C)CN(c2cc(F)ccc2N2CCC(NC(=O)C3(NC(=O)c4ccco4)CCCCC3)C(=O)C2)C1=O (stereo not shown) [Example 92, 4-[N-[1-[N-(furan-2-ylcarbonyl)amino]cyclohexanecarbonyl]amino]-1-[4-fluoro-2-(3,3-dimethylazetidin-2-one-1-yl)phenyl]piperidin-3-one] was tested, and the IC50 was 1.45 nM. Work on O=C(NC1(C(=O)NC2CCN(c3ccc(F)cc3N3CCCC3=O)CC2=O)CCCCC1)c1ccco1 (stereo not shown) [Example 95, 4-[N-[1-[N-(furan-2-ylcarbonyl)amino]cyclohexanecarbonyl]amino]-1-[4-fluoro-2-(pyrrolidin-2-one-1-yl)phenyl]piperidin-3-one] yielded an IC50 of 10.8 nM. O=C(NC1(C(=O)NC2CCN(c3ccc(F)cc3-n3cccc3)CC2=O)CCCCC1)c1ccco1 (stereo not shown) [Example 99, 4-[N-[1-[N-(furan-2-ylcarbonyl)amino]cyclohexanecarbonyl]amino]-1-[4-fluoro-2-(pyrrol-1-yl)phenyl]piperidin-3-one] gave an IC50 of 4.41 nM. For Cc1cc(C(=O)NC2(C(=O)NC3CCN(c4ccccc4S(C)(=O)=O)CC3=O)CCCCC2)no1 (stereo not shown) [Example 106, 4-[N-[1-[N-(5-methyl-isoxazol-3-ylcarbonyl)amino]cyclohexanecarbonyl]amino]-1-(2-methanesulfonylphenyl)piperidin-3-one], the IC50 was 19.9 nM. In the case of CCS(=O)(=O)c1ccccc1N1CCC(NC(=O)C2(NC(=O)c3cc(C)on3)CCCCC2)C(=O)C1 (stereo not shown) [Example 107, 4-[N-[1-[N-(5-methyl-isoxazol-3-ylcarbonyl)amino]cyclohexanecarbonyl]amino]-1-(2-ethanesulfonylphenyl)piperidin-3-one], the IC50 is reported as 8.07 nM. CS(=O)(=O)c1ccccc1N1CCC(NC(=O)C2(NC(=O)c3ccc(Cl)s3)CCCCC2)C(=O)C1 (stereo not shown) [Example 114, 4-[N-[1-[N-(5-chloro-thiophen-2-ylcarbonyl)amino]cyclohexanecarbonyl]amino]-1-(2-methanesulfonylphenyl)piperidin-3-one] was tested, and the IC50 was 1.93 nM. Molecule CC(C)S(=O)(=O)c1ccccc1N1CCC(NC(=O)C2(NC(=O)c3ccc(Cl)s3)CCCCC2)C(=O)C1 (stereo not shown) [Example 116, 4-[N-[1-[N-(5-chloro-thiophen-2-ylcarbonyl)amino]cyclohexanecarbonyl]amino]-1-(2-isopropanesulfonylphenyl)piperidin-3-one] has an IC50 of 2.35 nM. CS(=O)(=O)c1ccc(F)cc1N1CCC(NC(=O)C2(NC(=O)c3ccc(Cl)s3)CCCCC2)C(=O)C1 (stereo not shown) [Example 117, 4-[N-[1-[N-(5-chloro-thiophen-2-ylcarbonyl)amino]cyclohexanecarbonyl]amino]-1-(5-fluoro-2-methanesulfonylphenyl)piperidin-3-one] was tested, and the IC50 was 2.13 nM. With Cc1ccsc1C(=O)NC1(C(=O)NC2CCN(c3ccccc3S(C)(=O)=O)CC2=O)CCCCC1 (stereo not shown) [Example 121, 4-[N-[1-[N-(3-methyl-thiophen-2-ylcarbonyl)amino]cyclohexanecarbonyl]amino]-1-(2-methanesulfonylphenyl)piperidin-3-one] the IC50 was 7.73 nM. With Cc1occc1C(=O)NC1(C(=O)NC2CCN(c3ccccc3S(C)(=O)=O)CC2=O)CCCCC1 (stereo not shown) [Example 122, 4-[N-[1-[N-(2-methyl-furan-3-ylcarbonyl)amino]cyclohexanecarbonyl]amino]-1-(2-methanesulfonylphenyl)piperidin-3-one] the IC50 was 3.87 nM. With Cc1ccc(C(=O)NC2(C(=O)NC3CCN(c4ccccc4S(C)(=O)=O)CC3=O)CCCCC2)o1 (stereo not shown) [Example 123, 4-[N-[1-[N-(5-methyl-furan-2-ylcarbonyl)amino]cyclohexanecarbonyl]amino]-1-(2-methanesulfonylphenyl)piperidin-3-one] the IC50 was 4.97 nM. With Cc1cc(C(=O)NC2(C(=O)NC3CCN(c4ccccc4S(C)(=O)=O)CC3=O)CCCCC2)oc1C (stereo not shown) [Example 125, 4-[N-[1-[N-(4,5-dimethyl-furan-2-ylcarbonyl)amino]cyclohexanecarbonyl]amino]-1-(2-methanesulfonylphenyl)piperidin-3-one] the IC50 was 6.8 nM. For CS(=O)(=O)c1ccccc1N1CCC(NC(=O)C2(NC(=O)c3cc4ccccc4s3)CCCCC2)C(=O)C1 (stereo not shown) [Example 128, 4-[N-[1-[N-(benzothiophen-2-ylcarbonyl)amino]cyclohexanecarbonyl]amino]-1-(2-methanesulfonylphenyl)piperidin-3-one], the IC50 was 0.67 nM. For CC(C)(C)OC(=O)c1ccccc1N1CCC(NC(=O)C2(NC(=O)c3cc4ccccc4s3)CCCCC2)C(=O)C1 (stereo not shown) [Example 129, 4-[N-[1-[N-(benzothiophen-2-ylcarbonyl)amino]cyclohexanecarbonyl]amino]-1-(2-tert-butoxycarbonylphenyl)piperidin-3-one], the IC50 was 0.45 nM. In the case of O=C(NC1(C(=O)NC2CCN(c3cc(C(F)(F)F)ccc3Cl)CC2=O)CCCCC1)c1cc2ccccc2s1 (stereo not shown) [Example 130, 4-[N-[1-[N-(benzothiophen-2-ylcarbonyl)amino]cyclohexanecarbonyl]amino]-1-(2-chloro-5-trifluoromethylphenyl)piperidin-3-one], the IC50 is reported as 1.2 nM. With O=C(NC1(C(=O)NC2CCN(c3ccc(Cl)cc3F)CC2=O)CCCCC1)c1cc2ccccc2s1 (stereo not shown) [Example 131, 4-[N-[1-[N-(benzothiophen-2-ylcarbonyl)amino]cyclohexanecarbonyl]amino]-1-(4-chloro-2-fluoro-phenyl)piperidin-3-one] the IC50 was 4.11 nM. Cc1c(C(=O)NC2(C(=O)NC3CCN(c4ccccc4S(C)(=O)=O)CC3=O)CCCCC2)oc2ccccc12 (stereo not shown) [Example 133, 4-[N-[1-[N-(3-methyl-benzofuran-2-ylcarbonyl)amino]cyclohexanecarbonyl]amino]-1-(2-methanesulfonylphenyl)piperidin-3-one] gave an IC50 of 1.22 nM. For Cc1c(C(=O)NC2(C(=O)NC3CCN(c4cc(F)ccc4C(F)(F)F)CC3=O)CCCCC2)oc2ccccc12 (stereo not shown) [Example 134, 4-[N-[1-[N-(3-methyl-benzofuran-2-ylcarbonyl)amino]cyclohexanecarbonyl]amino]-1-(5-fluoro-2-trifluoromethylphenyl)piperidin-3-one], the IC50 was 6.09 nM. Molecule CS(=O)(=O)c1ccccc1N1CCC(NC(=O)C2(NC(=O)c3ccc4ccccc4n3)CCCCC2)C(=O)C1 (stereo not shown) [Example 136, 4-[N-[1-[N-(quinolin-2-ylcarbonyl)amino]cyclohexanecarbonyl]amino]-1-(2-methanesulfonylphenyl)piperidin-3-one] has an IC50 of 1.62 nM. Work on O=C(NC1(C(=O)NC2CCN(c3ccccc3[N+](=O)[O-])CC2=O)CCCCC1)c1ccc2ccccc2n1 (stereo not shown) [Example 138, 4-[N-[1-[N-(quinolin-2-ylcarbonyl)amino]cyclohexanecarbonyl]amino]-1-(2-nitrophenyl)piperidin-3-one] yielded an IC50 of 4.82 nM. CS(=O)(=O)c1ccccc1N1CCC(NC(=O)C2(NC(=O)c3ccc(-c4ccccc4)cc3)CCCCC2)C(=O)C1 (stereo not shown) [Example 153, 4-[N-[1-[N-(4-biphenylcarbonyl)amino]cyclohexanecarbonyl]amino]-1-(2-methanesulfonylphenyl)piperidin-3-one] gave an IC50 of 0.36 nM. In the case of CS(=O)(=O)c1ccccc1N1CCC(NC(=O)C2(NC(=O)c3ccc(C(F)(F)F)cc3)CCCCC2)C(=O)C1 (stereo not shown) [Example 154, 4-[N-[1-[N-(4-trifluoromethylbenzoyl)amino]cyclohexanecarbonyl]amino]-1-(2-methanesulfonylphenyl)piperidin-3-one], the IC50 is reported as 1.37 nM. For CS(=O)(=O)c1ccccc1N1CCC(NC(=O)C2(NC(=O)c3ccc(OCCN4CCOCC4)cc3)CCCCC2)C(=O)C1 (stereo not shown) [Example 155, 4-[N-[1-[N-(4-(2-morpholinethoxy)benzoyl)amino]cyclohexanecarbonyl]amino]-1-(2-methanesulfonylphenyl)piperidin-3-one], the IC50 was 1.29 nM. Molecule CS(=O)(=O)c1ccccc1N1CCC(NC(=O)C2(NC(=O)c3ccc(OCCN4CCCC4)cc3)CCCCC2)C(=O)C1 (stereo not shown) [Example 156, 4-[N-[1-[N-(4-(2-pyrrolidinethoxy)benzoyl)amino]cyclohexanecarbonyl]amino]-1-(2-methanesulfonylphenyl)piperidin-3-one] has an IC50 of 1.9 nM. In the case of CS(=O)(=O)c1ccccc1N1CCC(NC(=O)C2(NC(=O)c3ccc(OCCN4CCOCC4)cc3)CCCCC2)C(=O)C1 (stereo not shown) [Example 158, 4-[N-[1-[N-(4-(2-morpholinethoxy)benzoyl)amino]cyclohexanecarbonyl]amino]-1-(2-methanesulfonylphenyl)piperidin-3-one hydrochloride], the IC50 is reported as 3.15 nM. CS(=O)(=O)c1ccccc1N1CCC(NC(=O)C2(NC(=O)c3ccc(OCCN4CCCC4)cc3)CCCCC2)C(=O)C1 (stereo not shown) [Example 159, 4-[N-[1-[N-(4-(2-pyrrolidinethoxy)benzoyl)amino]cyclohexanecarbonyl]amino]-1-(2-methanesulfonylphenyl)piperidin-3-one hydrochloride] gave an IC50 of 3.25 nM. For CS(=O)(=O)c1ccccc1N1CCC(NC(=O)C2(NC(=O)c3ccc(OCCN4CCCCC4)cc3)CCCCC2)C(=O)C1 (stereo not shown) [Example 160, 4-[N-[1-[N-(4-(2-piperidinethoxy)benzoyl)amino]cyclohexanecarbonyl]amino]-1-(2-methanesulfonylphenyl)piperidin-3-one hydrochloride], the IC50 was 3.14 nM.
